According to ChEMBL document CHEMBL1201862, “PubChem BioAssay data set” (2004):
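Following 48 hours of exposure in 96-well plates, responses at five concentrations were used to interpolate endpoints linearly. At the GI50, growth is halved.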 Activity calls are given as the source filed them. Rule as the data show it: active = GI50 up to about 1.1 µM and inactive = higher.

What was measured:
Test in all cases: inhibition of tumour cell growth, NCI panel, 48 h
786-0 = system: 786-0
A549 = system: A549
ACHN = system: ACHN
BT-549 = system: BT-549
CAKI-1 = system: CAKI-1
COLO 205 = system: COLO 205
DU-145 = system: DU-145
EKVX = system: EKVX
HCT-116 = system: HCT-116
HCT-15 = system: HCT-15
HL-60 = system: HL-60
HOP-92 = system: HOP-92
HT-29 = system: HT-29
Hs-578T = system: Hs-578T
IGROV-1 = system: IGROV-1
K562 = system: K562
KM12 = system: KM12
M14 = system: M14
MCF7 = system: MCF7
MDA-MB-231 = system: MDA-MB-231
MDA-MB-435 = system: MDA-MB-435
MDA-N = system: MDA-N
MOLT-4 = system: MOLT-4
Malme-3M = system: Malme-3M
NCI-H226 = system: NCI-H226
NCI-H23 = system: NCI-H23
NCI-H460 = system: NCI-H460
NCI-H522 = system: NCI-H522
NCI/ADR-RES = system: NCI/ADR-RES
OVCAR-5 = system: OVCAR-5
OVCAR-8 = system: OVCAR-8
PC-3 = system: PC-3
RPMI-8226 = system: RPMI-8226
RXF 393 = system: RXF 393
SF-268 = system: SF-268
SF-295 = system: SF-295
SF-539 = system: SF-539
SK-MEL-2 = system: SK-MEL-2
SK-MEL-5 = system: SK-MEL-5
SK-OV-3 = system: SK-OV-3
SN12C = system: SN12C
SNB-19 = system: SNB-19
SNB-75 = system: SNB-75
SW-620 = system: SW-620
T47D = system: T47D
TK-10 = system: TK-10
U-251 = system: U-251
UACC-257 = system: UACC-257
UACC-62 = system: UACC-62
UO-31 = system: UO-31
A498 = system: A498
CCRF-CEM = system: CCRF-CEM
HCC 2998 = system: HCC 2998
HOP-62 = system: HOP-62
OVCAR-3 = system: OVCAR-3
OVCAR-4 = system: OVCAR-4
SK-MEL-28 = system: SK-MEL-28
LOX IMVI = system: LOX IMVI

O=[N+]([O-])c1cccc2nnccc12
GI50 (786-0): 12.6 µM (inactive) | GI50 (A549): 54.8 µM (inactive) | GI50 (ACHN): 11.7 µM (inactive) | GI50 (BT-549): 29.6 µM (inactive) | GI50 (CAKI-1): 34.9 µM (inactive) | GI50 (COLO 205): 13.3 µM (inactive) | GI50 (DU-145): 38.7 µM (inactive) | GI50 (EKVX): 36.5 µM (inactive) | GI50 (HCT-116): 12.1 µM (inactive) | GI50 (HCT-15): 12.9 µM | GI50 (HL-60): 2.5 µM (inactive) | GI50 (HOP-92): 24.2 µM (inactive) | GI50 (HT-29): 20.3 µM (inactive) | GI50 (Hs-578T): 51.5 µM (inactive) | GI50 (IGROV-1): 24.7 µM (inactive) | GI50 (K562): 23.9 µM (inactive) | GI50 (KM12): 23.7 µM (inactive) | GI50 (M14): 24.3 µM (inactive) | GI50 (MCF7): 21.1 µM (inactive) | GI50 (MDA-MB-231): > 10 µM (inactive) | GI50 (MDA-MB-435): 15.7 µM (inactive) | GI50 (MDA-N): 17.6 µM (inactive) | GI50 (MOLT-4): 28.4 µM (inactive) | GI50 (Malme-3M): 11.9 µM (inactive) | GI50 (NCI-H226): 16 µM (inactive) | GI50 (NCI-H23): 23.3 µM (inactive) | GI50 (NCI-H460): 19.1 µM (inactive) | GI50 (NCI-H522): 3.71 µM (inactive) | GI50 (NCI/ADR-RES): 34.1 µM (inactive) | GI50 (OVCAR-5): 63.5 µM (inactive) | GI50 (OVCAR-8): 31.9 µM (inactive) | GI50 (PC-3): 31.8 µM (inactive) | GI50 (RPMI-8226): 22 µM (inactive) | GI50 (RXF 393): 63.5 µM (inactive) | GI50 (SF-268): 25.2 µM (inactive) | GI50 (SF-295): 42.7 µM (inactive) | GI50 (SF-539): 48 µM (inactive) | GI50 (SK-MEL-2): 24.7 µM (inactive) | GI50 (SK-MEL-5): 14.1 µM (inactive) | GI50 (SK-OV-3): 93.3 µM (inactive) | GI50 (SN12C): 26.1 µM (inactive) | GI50 (SNB-19): 35.9 µM (inactive) | GI50 (SNB-75): 48.3 µM (inactive) | GI50 (SW-620): 42 µM (inactive) | GI50 (T47D): 36.8 µM (inactive) | GI50 (TK-10): 46.3 µM (inactive) | GI50 (U-251): 41.6 µM (inactive) | GI50 (UACC-257): 16.5 µM (inactive) | GI50 (UACC-62): 13.6 µM (inactive) | GI50 (UO-31): 28.6 µM (inactive)

O=C(c1ccc(Cl)c(Cl)c1)N(C(=S)OC12CC3CC(CC(C3)C1)C2)c1ccccc1
GI50 (786-0): 30.3 µM (inactive) | GI50 (A498): 37.1 µM (inactive) | GI50 (A549): 32.2 µM (inactive) | GI50 (ACHN): 34.8 µM (inactive) | GI50 (BT-549): 36 µM (inactive) | GI50 (CAKI-1): 29.9 µM (inactive) | GI50 (CCRF-CEM): 2.8 µM (inactive) | GI50 (COLO 205): 15.9 µM (inactive) | GI50 (DU-145): 83.2 µM (inactive) | GI50 (EKVX): 20.8 µM (inactive) | GI50 (HCC 2998): 43.3 µM (inactive) | GI50 (HCT-116): 24.8 µM (inactive) | GI50 (HCT-15): 33.3 µM | GI50 (HL-60): 15.8 µM (inactive) | GI50 (HOP-62): 44.6 µM (inactive) | GI50 (HOP-92): 31.8 µM (inactive) | GI50 (HT-29): 29.6 µM (inactive) | GI50 (Hs-578T): 41.3 µM (inactive) | GI50 (K562): 17.1 µM (inactive) | GI50 (KM12): 33.7 µM (inactive) | GI50 (M14): 20.8 µM (inactive) | GI50 (MCF7): 28 µM (inactive) | GI50 (MDA-MB-231): 38.3 µM (inactive) | GI50 (MDA-MB-435): 30.2 µM (inactive) | GI50 (MDA-N): 32.7 µM (inactive) | GI50 (Malme-3M): 34.9 µM (inactive) | GI50 (NCI-H226): 31.2 µM (inactive) | GI50 (NCI-H23): 28.9 µM (inactive) | GI50 (NCI-H460): 37.8 µM (inactive) | GI50 (NCI-H522): 13.2 µM (inactive) | GI50 (NCI/ADR-RES): 30.1 µM (inactive) | GI50 (OVCAR-3): 39.4 µM (inactive) | GI50 (OVCAR-4): 38.2 µM (inactive) | GI50 (OVCAR-5): 18.7 µM (inactive) | GI50 (OVCAR-8): 41.5 µM (inactive) | GI50 (PC-3): 39.9 µM (inactive) | GI50 (RXF 393): > 100 µM (inactive) | GI50 (SF-268): 40.4 µM (inactive) | GI50 (SF-295): 36.1 µM (inactive) | GI50 (SF-539): 36.6 µM (inactive) | GI50 (SK-MEL-28): 44.6 µM (inactive) | GI50 (SK-MEL-2): 20 µM (inactive) | GI50 (SK-MEL-5): 19.5 µM (inactive) | GI50 (SK-OV-3): 36.6 µM (inactive) | GI50 (SN12C): 26.9 µM (inactive) | GI50 (SNB-19): 33.3 µM (inactive) | GI50 (SNB-75): 93.1 µM (inactive) | GI50 (SW-620): 35.2 µM (inactive) | GI50 (T47D): 54.6 µM (inactive) | GI50 (TK-10): 66.8 µM (inactive) | GI50 (U-251): 34.6 µM (inactive) | GI50 (UACC-257): 41.2 µM (inactive) | GI50 (UACC-62): 25.1 µM (inactive) | GI50 (UO-31): 21.1 µM (inactive)

O=c1cccc2n1CC1CNC[C@H]2C1 [CYTISINICLINE]
GI50 (786-0): > 100 µM (inactive) | GI50 (A549): > 100 µM (inactive) | GI50 (ACHN): > 100 µM (inactive) | GI50 (BT-549): > 100 µM (inactive) | GI50 (CAKI-1): > 100 µM (inactive) | GI50 (CCRF-CEM): > 100 µM (inactive) | GI50 (COLO 205): > 100 µM (inactive) | GI50 (DU-145): > 100 µM (inactive) | GI50 (EKVX): > 100 µM (inactive) | GI50 (HCC 2998): > 100 µM (inactive) | GI50 (HCT-116): > 100 µM (inactive) | GI50 (HCT-15): > 100 µM | GI50 (HOP-62): > 100 µM (inactive) | GI50 (HOP-92): > 100 µM (inactive) | GI50 (HT-29): > 100 µM (inactive) | GI50 (Hs-578T): > 100 µM (inactive) | GI50 (IGROV-1): > 100 µM (inactive) | GI50 (K562): > 100 µM (inactive) | GI50 (KM12): > 100 µM (inactive) | GI50 (LOX IMVI): > 100 µM (inactive) | GI50 (M14): > 100 µM (inactive) | GI50 (MCF7): > 100 µM (inactive) | GI50 (MDA-MB-231): > 100 µM (inactive) | GI50 (MDA-MB-435): > 100 µM (inactive) | GI50 (MDA-N): > 100 µM (inactive) | GI50 (MOLT-4): > 100 µM (inactive) | GI50 (Malme-3M): > 100 µM (inactive) | GI50 (NCI-H23): > 100 µM (inactive) | GI50 (NCI-H460): > 100 µM (inactive) | GI50 (NCI-H522): > 100 µM (inactive) | GI50 (NCI/ADR-RES): > 100 µM (inactive) | GI50 (OVCAR-3): > 100 µM (inactive) | GI50 (OVCAR-4): > 100 µM (inactive) | GI50 (OVCAR-5): > 100 µM (inactive) | GI50 (OVCAR-8): > 100 µM (inactive) | GI50 (PC-3): > 100 µM (inactive) | GI50 (RXF 393): > 100 µM (inactive) | GI50 (SF-268): > 100 µM (inactive) | GI50 (SF-295): > 100 µM (inactive) | GI50 (SK-MEL-28): > 100 µM (inactive) | GI50 (SK-MEL-2): > 100 µM (inactive) | GI50 (SK-MEL-5): > 100 µM (inactive) | GI50 (SK-OV-3): > 100 µM (inactive) | GI50 (SN12C): > 100 µM (inactive) | GI50 (SNB-19): > 100 µM (inactive) | GI50 (SNB-75): > 100 µM (inactive) | GI50 (SW-620): > 100 µM (inactive) | GI50 (T47D): > 100 µM (inactive) | GI50 (TK-10): > 100 µM (inactive) | GI50 (U-251): > 100 µM (inactive) | GI50 (UACC-257): > 100 µM (inactive) | GI50 (UACC-62): > 100 µM (inactive) | GI50 (UO-31): > 100 µM (inactive)
